{"source": "patent US12583852B2", "about": "“Heterocycle derivative” (JW PHARMACEUTICAL CORPORATION, priority 2018, dated 2026)"}
{"test_system": "human dermal papilla cells", "assay": "Promotion of proliferation of human dermal papilla cells (CellTiter-Glo Luminescent cell viability assay)", "format": "cell-based", "conditions": "human dermal papilla cells (ScienCell, 2499); drug 0 to 30 μM; 48 hours; CellTiter-Glo luminescence; compared to DMSO-treated control group", "description": "The effect of promoting cell proliferation by the drug was analyzed using human dermal papilla cells (ScienCell, 2499). Human dermal papilla cells cultured using Mesenchymal Stem Cell Medium (ScienCell, 7501) medium were seeded at a density of 3×10^3 cells/well and in a volume of 100 μl in a 96-well plate, incubated overnight at 37° C. and 5% CO2, treated with the drug at different concentrations ranging from 0 to 30 μM in a volume of 100 μL, and incubated at 37° C. and 5% CO2 for 48 hours. CellTiter-Glo Luminescent cell viability assay was performed according to the manufacturer's protocol (Promega, G7573) to detect cell proliferation. Luminescence was measured using an Envision 2102 multilabeled reader (PerkinElmer) equipment, and the cell proliferation rate was analyzed by the activity of the drug-treated group compared to the DMSO-treated group (control group), which is a solvent of the drug.", "units": {"Maximum DP cell proliferation (%)": "%"}}
{"compound": "Nc1n[nH]c2nc(Nc3cccc4ccccc34)c(F)cc12", "note": "[Compound 24, 5-fluoro-N6-(naphthalen-1-yl)-1H-pyrazolo[3,4-b]pyridine-3,6-diamine]", "Maximum DP cell proliferation (%)": 8}
{"compound": "Cc1cc2c(c(Nc3nc4[nH]nc(N)c4cc3F)c1)CCC2", "note": "[Compound 27, 5-fluoro-N6-(6-methyl-2,3-dihydro-1H-inden-4-yl)-1H-pyrazolo[3,4-b]pyridine-3,6-diamine]", "Maximum DP cell proliferation (%)": 6.8}
{"compound": "Nc1n[nH]c2nc(Nc3c4c(cc5c3CCC5)CCC4)c(F)cc12", "note": "[Compound 29, 5-fluoro-N6-(1,2,3,5,6,7-hexahydro-s-indacen-4-yl)-1H-pyrazolo[3,4-b]pyridine-3,6-diamine]", "Maximum DP cell proliferation (%)": 4.6}
{"compound": "Cc1ccc2cccc(Nc3nc4[nH]nc(N)c4cc3F)c2c1", "note": "[Compound 31, 5-fluoro-N6-(7-methyl-1-naphthyl)-1H-pyrazolo[3,4-b]pyridine-3,6-diamine]", "Maximum DP cell proliferation (%)": 3.2}
{"compound": "Cc1c(Nc2nc3[nH]nc(N)c3cc2F)cccc1N(C)C", "note": "[Compound 33, N6-(3-(dimethylamino)-2-methylphenyl)-5-fluoro-1H-pyrazolo[3,4-b]pyridine-3,6-diamine]", "Maximum DP cell proliferation (%)": 6.3}
{"compound": "Nc1n[nH]c2nc(CNc3cccc4c3CCC4)c(F)cc12", "note": "[Compound 34, 5-fluoro-6-[(indan-4-ylamino)methyl]-1H-pyrazolo[3,4-b]pyridin-3-amine]", "Maximum DP cell proliferation (%)": 6.8}
{"compound": "Nc1n[nH]c2nc(Nc3cccc4ccccc34)ccc12", "note": "[Compound 35, N6-(naphthalen-1-yl)-1H-pyrazolo[3,4-b]pyridine-3,6-diamine]", "Maximum DP cell proliferation (%)": 1.2}
{"compound": "Nc1n[nH]c2nc(Nc3cccc4c3CCCC4)ccc12", "note": "[Compound 38, N6-(5,6,7,8-tetrahydronaphthalen-1-yl)-1H-pyrazolo[3,4-b]pyridine-3,6-diamine]", "Maximum DP cell proliferation (%)": 2.2}
{"compound": "Nc1n[nH]c2nc(Nc3cccc(C(F)F)c3F)cnc12", "note": "[Compound 39, N6-[3-(difluoromethyl)-2-fluoro-phenyl]-1H-pyrazolo[3,4-b]pyrazine-3,6-diamine]", "Maximum DP cell proliferation (%)": 7.9}
{"compound": "Nc1n[nH]c2nc(Nc3cccc4c3CCC4)c(Cl)c(Cl)c12", "note": "[Compound 42, 4,5-dichloro-N6-indan-4-yl-1H-pyrazolo[3,4-b]pyridine-3,6-diamine]", "Maximum DP cell proliferation (%)": 16}
{"compound": "Nc1n[nH]c2nc(Nc3cccc4c3CCCC4)cnc12", "note": "[Compound 45, N6-tetralin-5-yl-1H-pyrazolo[3,4-b]pyrazine-3,6-diamine]", "Maximum DP cell proliferation (%)": 7}
{"compound": "Nc1n[nH]c2nc(Nc3cccc4c3CC=C4)c(F)cc12", "note": "[Compound 48, 5-fluoro-N6-(1H-inden-7-yl)-1H-pyrazolo[3,4-b]pyridine-3,6-diamine]", "Maximum DP cell proliferation (%)": 11}
{"compound": "CC1(C)CCc2c(Nc3nc4[nH]nc(N)c4cc3F)cccc21", "note": "[Compound 51, N6-(1,1-dimethyl-2,3-dihydro-1H-inden-4-yl)-5-fluoro-1H-pyrazolo[3,4-b]pyridine-3,6-diamine]", "Maximum DP cell proliferation (%)": 8.7}
{"compound": "CC1(C)Cc2cccc(Nc3nc4[nH]nc(N)c4cc3F)c2C1", "note": "[Compound 52, N6-(2,2-dimethyl-2,3-dihydro-1H-inden-4-yl)-5-fluoro-1H-pyrazolo[3,4-b]pyridine-3,6-diamine]", "Maximum DP cell proliferation (%)": 11}
{"compound": "Nc1n[nH]c2nc(Nc3cccc4c3CNC4=O)c(F)cc12", "note": "[Compound 53, 4-((3-amino-5-fluoro-1H-pyrazolo[3,4-b]pyridin-6-yl)amino)isoindolin-1-one]", "Maximum DP cell proliferation (%)": 2.4}
{"compound": "Nc1n[nH]c2nc(Nc3cccc4c3CC(=O)N4)c(F)cc12", "note": "[Compound 54, 4-((3-amino-5-fluoro-1H-pyrazolo[3,4-b]pyridin-6-yl)amino)indolin-2-one]", "Maximum DP cell proliferation (%)": 4.4}
{"compound": "Nc1n[nH]c2nc(Nc3cc(O)cc4c3CCC4)c(F)cc12", "note": "[Compound 56, 7-[(3-amino-5-fluoro-1H-pyrazolo[3,4-b]pyridin-6-yl)amino]indan-5-ol]", "Maximum DP cell proliferation (%)": 7.3}
{"compound": "Nc1n[nH]c2nc(Nc3c(O)ccc4c3CCC4)c(F)cc12", "note": "[Compound 57, 4-[(3-amino-5-fluoro-1H-pyrazolo[3,4-b]pyridin-6-yl)amino]indan-5-ol]", "Maximum DP cell proliferation (%)": 3.1}
{"compound": "Cc1c(Nc2cccc3c2CCC3)nc2[nH]nc(N)c2c1C", "note": "[Compound 58, N6-(2,3-dihydro-1H-inden-4-yl)-4,5-dimethyl-1H-pyrazolo[3,4-b]pyridine-3,6-diamine]", "Maximum DP cell proliferation (%)": 13}
{"compound": "Nc1n[nH]c2nc(Nc3cccc(Cl)c3Cl)c(F)cc12", "note": "[Compound 59, N6-(2,3-dichlorophenyl)-5-fluoro-1H-pyrazolo[3,4-b]pyridine-3,6-diamine]", "Maximum DP cell proliferation (%)": 15}
{"compound": "Nc1n[nH]c2nc(Nc3cccc4ncccc34)c(F)cc12", "note": "[Compound 60, 5-fluoro-N6-(quinolin-5-yl)-1H-pyrazolo[3,4-b]pyridine-3,6-diamine]", "Maximum DP cell proliferation (%)": 6.1}
{"compound": "Nc1n[nH]c2nc(Nc3cccc(C(F)F)c3F)c(F)cc12", "note": "[Compound 61, N6-(3-(difluoromethyl)-2-fluorophenyl)-5-fluoro-1H-pyrazolo[3,4-b]pyridine-3,6-diamine]", "Maximum DP cell proliferation (%)": 11}
{"compound": "Nc1n[nH]c2nc(Nc3cccc(F)c3C(F)(F)F)c(F)cc12", "note": "[Compound 62, 5-fluoro-N6-(3-fluoro-2-(trifluoromethyl)phenyl)-1H-pyrazolo[3,4-b]pyridine-3,6-diamine]", "Maximum DP cell proliferation (%)": 6.2}
{"compound": "Nc1n[nH]c2nc(Nc3cccc(C(F)(F)F)c3F)c(F)cc12", "note": "[Compound 64, 5-fluoro-N6-(2-fluoro-3-(trifluoromethyl)phenyl)-1H-pyrazolo[3,4-b]pyridine-3,6-diamine]", "Maximum DP cell proliferation (%)": 16}
{"compound": "Nc1n[nH]c2nc(Nc3cccc(C(F)(F)F)c3F)ccc12", "note": "[Compound 65, N6-[2-fluoro-3-(trifluoromethyl)phenyl]-1H-pyrazolo[3,4-b]pyridine-3,6-diamine]", "Maximum DP cell proliferation (%)": 10}
{"compound": "Nc1n[nH]c2nc(Nc3cccc(C(F)(F)F)c3F)cnc12", "note": "[Compound 66, N6-[2-fluoro-3-(trifluoromethyl)phenyl]-1H-pyrazolo[3,4-b]pyrazine-3,6-diamine]", "Maximum DP cell proliferation (%)": 25}
{"compound": "Cc1c(Cl)cccc1Nc1nc2[nH]nc(N)c2cc1F", "note": "[Compound 67, N6-(3-chloro-2-methylphenyl)-5-fluoro-1H-pyrazolo[3,4-b]pyridine-3,6-diamine]", "Maximum DP cell proliferation (%)": 13}
{"compound": "Nc1n[nH]c2nc(Nc3cc(C(F)(F)F)ccc3F)c(F)cc12", "note": "[Compound 68, 5-fluoro-N6-(2-fluoro-5-(trifluoromethyl)phenyl)-1H-pyrazolo[3,4-b]pyridine-3,6-diamine]", "Maximum DP cell proliferation (%)": 4.5}
{"compound": "Nc1n[nH]c2nc(Nc3ccc(C(F)(F)F)c(F)c3)c(F)cc12", "note": "[Compound 72, 5-fluoro-N6-[3-fluoro-4-(trifluoromethyl)phenyl]-1H-pyrazolo[3,4-b]pyridine-3,6-diamine]", "Maximum DP cell proliferation (%)": 6.8}
